Measurements from article PMC8082450, “Protein Serine/Threonine Phosphatase Type 2C of Leishmania mexicana” (Frontiers in Cellular and Infection Microbiology, 2021).

Target: T1, LmxPP2C (Leishmania mexicana, UniProt E9AXF3)
T1 construct: gene LMXM_25_0750
T1 sequence (E9AXF3 1-406): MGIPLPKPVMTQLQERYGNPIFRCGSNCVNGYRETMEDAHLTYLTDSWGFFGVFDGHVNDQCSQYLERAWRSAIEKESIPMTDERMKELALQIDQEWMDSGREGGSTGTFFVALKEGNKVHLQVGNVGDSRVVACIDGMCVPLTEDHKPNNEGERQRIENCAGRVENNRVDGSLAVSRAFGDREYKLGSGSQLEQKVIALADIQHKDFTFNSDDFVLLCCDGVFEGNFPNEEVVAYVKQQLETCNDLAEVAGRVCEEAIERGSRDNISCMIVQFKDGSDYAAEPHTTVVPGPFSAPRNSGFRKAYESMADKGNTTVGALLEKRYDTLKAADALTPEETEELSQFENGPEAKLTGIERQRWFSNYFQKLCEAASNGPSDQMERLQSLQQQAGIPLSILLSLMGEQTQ
Assay: phosphatase inhibition assay, p-NPP hydrolysis at […] nm
Assay type: biochemical

Molecule C=C1[C@@H](O)[C@@H]2O[C@]3(CC[C@H](/C=C/[C@@H](C)[C@@H]4CC(C)=C[C@@]5(O[C@H](C[C@@](C)(O)C(=O)O)CC[C@H]5O)O4)O3)CC[C@H]2O[C@@H]1[C@@H](O)C[C@H](C)[C@H]1O[C@@]2(CCCCO2)CC[C@H]1C [okadaic acid] has an inhibition at 1 µM (read-out: % inhibition at 1 μM) of 14%.
With C[n+]1cc2c3c(ccc2c2ccc4cc5c(cc4c21)OCO5)OCO3 [sanguinarine] the inhibition at 20 µM was 81%.
COC[C@@H]([C@H](O)[C@H](O)C(=O)NCC[C@H](C)c1nc(/C=C/C[C@@H]2O[C@]3(C[C@@H](O)[C@@H]2C)O[C@H]([C@H](C[C@H](O)[C@H](C)[C@H](O)[C@H](C)/C=C(C)/C(C)=C/C=C/C(C)=C\C#N)OC)[C@H](OP(=O)(O)O)C3(C)C)co1)N(C)C [calyculin] gave an inhibition at 0.005 µM (read-out: % inhibition at 5 nM) of 18%.
